These molecules were tested against SARS-CoV-2 nsp5 (nsp4-5-6 WT) (Severe acute respiratory syndrome coronavirus 2, UniProt P0DTD1) (assay: cell-based).
`C1=C/COCc2cc(ccc2OCCN2CCCC2)Nc2nccc(n2)-c2cccc(c2)COC/1` [Compound #9, Pacritinib (SB1518)] was tested, and the “dose-response curve in Rev-Nluc assay” value was “irregular pattern”.

These molecules were tested on SARS-CoV-2 nsp4-5-6 C145A (assay: not given).
Type: cell-based
`Cc1nc(Nc2ncc(C(=O)Nc3c(C)cccc3Cl)s2)cc(N2CCN(CCO)CC2)n1` [compound 21, Dasatinib (BMS-354825)] was tested, and the “Secondary screen nsp5-CA RLU (%)” value was 249.1 ± 19.9%.
For `Cc1cnc(Nc2ccc(OCCN3CCCC3)cc2)nc1Nc1cccc(S(=O)(=O)NC(C)(C)C)c1` [compound 6, Fedratinib (SAR302503)], the “Secondary screen nsp5-CA RLU (%)” value was >250%.
In the case of UNC2881 [compound 1], the “Secondary screen nsp5-CA RLU (%)” value is reported as 295.3 ± 15.8%.
In the case of `C=CC(=O)Nc1cc(Nc2nccc(-c3cn(C)c4ccccc34)n2)c(OC)cc1N(C)CCN(C)C` [compound 23, Osimertinib (AZD9291)], the “Secondary screen nsp5-CA RLU (%)” value is reported as 43.2 ± 6.7%.
With `CC(C)(C(=O)c1cccnc1)c1cccnc1` [compound 44, Metyrapone] the “Secondary screen nsp5-CA RLU (%)” value was 77.7 ± 2.4%.
With `COCCOc1ccc2c(c1)ncn2-c1ccc2cccc(N3CCC(N)CC3)c2n1` [compound 12, CP 673451] the “Secondary screen nsp5-CA RLU (%)” value was 144.6 ± 10.3%.
In the case of `O=C(Nc1c[nH]nc1-c1nc2ccc(CN3CCOCC3)cc2[nH]1)NC1CC1` [compound 10, AT9283], the “Secondary screen nsp5-CA RLU (%)” value is reported as 71.3 ± 8.3%.
With `Cc1cnc(Nc2ccc(N3CCN(C)CC3)cc2)nc1Nc1cccc(S(=O)(=O)NC(C)(C)C)c1` [compound 8, TG101209] the “Secondary screen nsp5-CA RLU (%)” value was >250%.
In the case of `CC[C@@H]1C(=O)N(C)c2cnc(Nc3ccc(C(=O)N[C@H]4CC[C@H](N5CCN(CC6CC6)CC5)CC4)cc3OC)nc2N1C(C)C` [compound 4, Volasertib (BI6727)], the “Secondary screen nsp5-CA RLU (%)” value is reported as >250%.
With `O=C(NC(Cc1cc(=O)[nH]c2ccccc12)C(=O)O)c1ccc(Cl)cc1` (stereo not drawn) [compound 43, Rebamipide] the “Secondary screen nsp5-CA RLU (%)” value was 71.6 ± 6.5%.
For `COc1cc(NC(=O)Nc2cccc(CNC(=O)O[C@H]3CCOC3)c2)ccc1-c1cnco1` [compound 5, Merimepodib], the “Secondary screen nsp5-CA RLU (%)” value was 110.4 ± 10.8%.
In the case of `CNCc1ccc(C)c(NC(=O)c2ccc(Nc3nc(-c4ccccc4)c4ccccc4n3)cc2)c1` [compound 16, BMS-833923 (XL139)], the “Secondary screen nsp5-CA RLU (%)” value is reported as 256.0 ± 74.0%.
For `C1=C/COCc2cc(ccc2OCCN2CCCC2)Nc2nccc(n2)-c2cccc(c2)COC/1` [Compound #9, Pacritinib (SB1518)], the “Secondary screen nsp5-CA RLU (%)” value was 98.3 ± 4.0%.
With `CCOC(=O)C1=C(C)NC(C)=C(C(=O)OCC)C1c1ccccc1/C=C/C(=O)OC(C)(C)C` [compound 3, Lacidipine] the “Secondary screen nsp5-CA RLU (%)” value was 121.2 ± 7.4%.
For `Cc1sc2c(c1C)C(c1ccc(Cl)cc1)=N[C@@H](CC(=O)Nc1ccc(O)cc1)c1nnc(C)n1-2` [compound 7, OTX015], the “Secondary screen nsp5-CA RLU (%)” value was >250%.
For `CC(C)(C)c1cnc(CSc2cnc(NC(=O)C3CCNCC3)s2)o1` [compound 17, SNS-032 (BMS-387032)], the “Secondary screen nsp5-CA RLU (%)” value was 66.6 ± 3.4%.
For `C=CC(=O)Nc1cccc(Nc2nc(Nc3ccc(N4CCN(C(C)=O)CC4)cc3OC)ncc2C(F)(F)F)c1` [compound 20, Rociletinib (CO-1686. AVL-301)], the “Secondary screen nsp5-CA RLU (%)” value was 181.9 ± 10.4%.
